Measured values published in article PMC6905855, “Agonist-specific voltage-dependent gating of lysosomal two-pore Na^+ channels” (eLife, 2019).
Where “and” joins values, the source holds several entries; their conditions need not be identical. Equal values may be shown once. Entries after “also recorded” stand apart in the source; their conditions may differ. Read-outs that look alike come from different tables or passages of the source. Blank lines part the entries; values can stand above or below the compound they belong to.

Tests used:
[1] = molecular target: T1, surface-expressing mutant TPC2 channel (TPC2^LL/AA) in HEK293 cells (Homo sapiens, UniProt Q8NHX9, L11A/L12A); assay: Whole-cell recordings of ITPC2-LL/AA; assay type: cell-based; conditions: for voltage-dependent inactivation of ITPC2, I1s / 0s: @-140mV, whole-cell
T1 construct: expressed in transfected cells; host or cells: HEK293
T1 sequence (Q8NHX9 whole entry L11A/L12A): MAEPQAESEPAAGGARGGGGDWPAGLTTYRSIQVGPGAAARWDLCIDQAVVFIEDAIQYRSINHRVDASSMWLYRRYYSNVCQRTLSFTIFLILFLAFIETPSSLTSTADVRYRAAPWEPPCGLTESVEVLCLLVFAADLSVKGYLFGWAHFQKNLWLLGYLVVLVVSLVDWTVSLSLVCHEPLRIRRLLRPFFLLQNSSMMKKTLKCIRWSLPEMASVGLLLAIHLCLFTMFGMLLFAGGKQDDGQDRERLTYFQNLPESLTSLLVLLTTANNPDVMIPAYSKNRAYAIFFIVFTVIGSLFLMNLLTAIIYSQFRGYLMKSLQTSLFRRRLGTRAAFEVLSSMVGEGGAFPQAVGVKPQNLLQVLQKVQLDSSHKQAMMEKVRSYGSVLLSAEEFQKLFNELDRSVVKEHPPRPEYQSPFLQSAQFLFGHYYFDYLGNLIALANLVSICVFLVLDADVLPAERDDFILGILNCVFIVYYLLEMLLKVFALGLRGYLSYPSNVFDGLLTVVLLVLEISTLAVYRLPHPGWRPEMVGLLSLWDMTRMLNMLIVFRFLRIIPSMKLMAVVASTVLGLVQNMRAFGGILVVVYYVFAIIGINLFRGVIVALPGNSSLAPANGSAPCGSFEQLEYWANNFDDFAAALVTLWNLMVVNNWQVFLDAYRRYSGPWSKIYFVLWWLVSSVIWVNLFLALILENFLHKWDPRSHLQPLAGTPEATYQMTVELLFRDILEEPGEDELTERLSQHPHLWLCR
Excerpt: We therefore characterized the responses of TPC2 channels to TCAs in detail using electrophysiological methods. We first performed whole-cell recordings in HEK293 cells that were transfected with surface-expressed TPC2 mutant channels (TPC2-L^11L^12-AA; abbreviated as TPC2^LL/AA hereafter).
(§1) All TPC1 and TPC2 mutants were generated with a site-directed mutagenesis kit (Qiagen) using EGFP- human TPC1 and TPC2 as the templates. All constructs were confirmed by DNA sequencing.
Cells were transfected with Lipofectamine 2000 (Invitrogen). After culture media were refreshed 18–24 hr post-transfection, cells were used for the electrophysiological assays 24–36 hr post-transfection.
All bath solutions were applied via a perfusion system that allowed complete solution exchange within a few seconds. […] Whole-cell currents were digitized at 10 kHz and filtered at 2 kHz.

[2] = molecular target: T2, hTPC2 (Homo sapiens, UniProt Q8NHX9); assay: Whole-endolysosome recordings of ITPC2; assay type: biochemical; conditions: for inactivation of ITPC2, I500ms / I10ms: @-120mV; for combined effect with PI(3,5)P2 on whole-endolysosome ITPC2 (in words): PI(3,5)P2 50 nM; for Normalized I-TPC2: WT TPC2
T2 construct: expressed in transfected cells; host or cells: Cos1 and HEK293
T2 sequence (Q8NHX9 whole entry): as the sequence (Q8NHX9 whole entry L11A/L12A) above, with A11L, A12L counted along it

[3] = molecular target: T3, hTPC1 (Homo sapiens, UniProt Q9ULQ1); assay: Whole-endolysosome recordings of ITPC1; assay type: biochemical
T3 construct: expressed in transfected cells; host or cells: Cos1
Procedure: It was therefore of interest to explore whether TCAs/LyNa-VAs could also act on TPC1. To investigate this, we used two different voltage paradigms. […] Second, we used a tail current paradigm to measure the amplitude of the peak inward current at −120 mV following prolonged steps to various potentials (Figure 4E).
Figure 4. […] HP = 0 mV. […] Dotted lines in A indicate where the currents were measured. […] Data are presented as Mean ± S.E.M (n = 3 patches). […] (G) Normalized I-V plots of basal voltage-dependent currents in WT TPC1- and TPC1^R540I-transfected cells. […] Figure 4—source data 1. […] Figure 4—figure supplement 1. […] (A) A voltage protocol that elicited ITPC1 tail currents as shown in Figure 4E (from −140 to 100 mV with a ∆V = 20 mV, 1 s with a 10 s inter-step interval). Arrows indicate where tail currents were measured. (B) A voltage protocol that elicited ITPC1 tail currents as shown in C. […] HP = 0 mV. […] (A) Basal whole-endolysosome ITPC1 (left) or ITPC1-R540I (right) was elicited by voltage steps (−140 to +100 mV with ΔV = 20 mV) in the absence of PI(3,5)P2 in TPC1-transfected Cos1 cells ([She et al., 2019]). Tail currents were elicited at −120 mV. (B) The effects of PI(3,5)P2 (0.3 µM) on ITPC1 (left) and ITPC1-R540I (right) step currents. […] A preconditioning voltage (+80 mV, 0.1 s) was applied before voltage steps starting from −140 to 100 mV (0.5 s, ∆V = 20 mV).
as §1
Whole-endolysosome recordings were performed on manually isolated enlarged endolysosomes ([Wang et al., 2012]). In brief, a patch pipette was pressed against a cell and quickly pulled away to slice the cell membrane. Enlarged endolysosomes were released into a dish and identified by monitoring EGFP-TPC1/2 or the mCherry-TPC1/2 fluorescence. After formation of a gigaseal between the patch pipette and the enlarged endolysosome, capacitance transients were compensated. Voltage steps of several hundred mVs with millisecond duration were then applied to break into the vacuolar membrane. The whole-endolysosome configuration was verified by the re-appearance of capacitance transients after break-in.
Data were collected using an Axopatch 200A patch clamp amplifier, Digidata 1440, and pClamp 10.2 software (Axon Instruments). Whole-endolysosome currents were digitized at 10 kHz and filtered at 2 kHz. All experiments were conducted at room temperature (21–23°C), and all recordings were analyzed with pClamp 10.2, and Origin 8.0 (OriginLab, Northampton, MA). The permeability to cations (relative to PNa) was estimated based on following equations ([Lewis, 1979]) and Erev measurement under bi-ionic conditions:(1) PX/PNa=γNa/γX{[Na^+]Luminal/[X^+]Cytoplasmic}{exp([…])} (2) PCa/PNa=γNa/γCa{[Na^+]Cytoplasmic/[4[Ca^2+]Luminal}{exp(ErevF/RT)}{1+exp(ErevF/RT)} where R, T, F, Erev, and γ are, respectively, the gas constant, absolute temperature, Faraday constant, reversal potential, and activity coefficient. The liquid junction potentials were measured and corrected as described ([Neher, 1992]).

[4] = LyNA1 (300 µM)-induced whole-cell ITPC2-LL/AA, individual
[5] = PI(3,5)P2 0.3 µM, LyNa-VA1.2 100 µM, LyNA1 300 µM, individual tests

voltage-dependent inactivation of ITPC2, I1s / 0s ([1]; individual recordings): 0.9086 and 1.046 and 0.9409
voltage-dependent inactivation of ITPC2, I1s / 0s ([1]; mean): 0.9653
Px/PNa+, K+ [1, 4]: 0.05625 and 0.0959 and 0.1041
Px/PNa+, Na+ [1, 4]: 0.8393 and 1.008 and 0.9746
cation selectivity of induced whole-endolysosome ITPC2 (in words) [2]: highly selective for Na^+ over K^+
Dose-dependent activation of TPC2 (normalized current) ([2]; 10 µM +10nM PI(3,5)P2, individual patches): 0.03469 and -0.1321 and -0.1628
Dose-dependent activation of TPC2 (normalized current) ([2]; 50 µM +10nM PI(3,5)P2, individual patches): 0.02967 and -0.04581 and -0.07904
Dose-dependent activation of TPC2 (normalized current) ([2]; 50 µM, absence of PI(3,5)P2, individual patches): 0.02084 and 0.03963 and 0.0267
Dose-dependent activation of TPC2 (normalized current) ([2]; 100 µM +10nM PI(3,5)P2, individual patches): 0.3825 and 0.3197 and 0.06652
Dose-dependent activation of TPC2 (normalized current) ([2]; 150 µM +10nM PI(3,5)P2, individual patches): 0.5952 and 0.5358 and 0.2713
Dose-dependent activation of TPC2 (normalized current) ([2]; 300 µM +10nM PI(3,5)P2, individual patches): 0.9432 and 0.8992 and 0.9659
Dose-dependent activation of TPC2 (normalized current) ([2]; 300 µM, absence of PI(3,5)P2, individual patches): 0.9388 and 0.9543
Dose-dependent activation of TPC2 (normalized current) ([2]; 400 µM +10nM PI(3,5)P2, individual patches): 1 (2×) and 1.003
EC50 ([2]; + PI(3,5)P2 (10 nM)): 175 ± 19 µM
EC50 ([2]; - PI(3,5)P2): 181 ± 6 µM
inactivation of ITPC2, I500ms / I10ms [2, 5]: 0.9047 and 1.003 and 0.9967 and 0.9738
inactivation of ITPC2, I500ms / I10ms ([2]; mean): 0.9697
Rectification index of ITPC2, I+80mV/I-80mV [2, 5]: 0.903 and 1.02 and 0.912 and 0.8953
Rectification index of ITPC2, I+80mV/I-80mV ([2]; PI(3,5)P2 0.3 µM, LyNa-VA1.2 100 µM, LyNA1 300 µM, mean): 0.93 ± 0.03 and 0.9325
activation of whole-endolysosome ITPC2 (in words) ([2]; bath application, symmetric Na^+): readily activated ITPC2
I@500ms/I@10ms (current decline at steady state) ([2]; voltage-step protocols, at all potentials): ~1.0
effect on whole-endolysosome ITPC1 (in words) [3]: inhibited ITPC1
SMILES: Nc1nc2ccc(OC(F)(F)F)cc2s1 [LyNA1, Riluzole]
Px/PNa+, Ca2+ [1, 4]: 0.09045 and 0.1026 and 0.1022 and 0.09007
activation of whole-cell ITPC2-LL/AA (in words) ([1]; bath application, symmetric Na^+, 100 µM where stated): activated large and linear whole-cell currents
voltage dependence of TPC2 activation (in words) [2]: voltage independent; also recorded: no apparent voltage-dependent activation
Dose-dependent activation of TPC2 (normalized current) ([2]; 100 µM, absence of PI(3,5)P2, individual patches): 0.1347 and 0.1166 and 0.2034 and 0.258 and 0.1062
Dose-dependent activation of TPC2 (normalized current) ([2]; 150 µM, absence of PI(3,5)P2, individual patches): 0.4553 and 0.5013 and 0.5031 and 0.7594 and 0.3882
Dose-dependent activation of TPC2 (normalized current) ([2]; 400 µM, absence of PI(3,5)P2, individual patches): 0.9725 and 0.9884 and 0.9899 and 0.9935 and 0.9997 and 0.9921
combined effect with PI(3,5)P2 on whole-endolysosome ITPC2 (in words) [2]: additive but not synergistic activation; also recorded: Additive effects

SMILES: CN(C)CCCN1c2ccccc2CCc2ccc(Cl)cc21 [LyNa-VA1.1, Clomipramine]
activation of whole-cell ITPC2-LL/AA (in words) [1]: activated
current, whole-cell ITPC2-LL/AA [1]: 1835.6 pA and 1904.2 pA and 1632.7 pA and 1290 pA and 1968.1 pA
EC50 ([1]; whole-cell recordings at −140 mV, TPC2^LL/AA-transfected HEK293 cells, read-out: EC50): 43 ± 2 µM
combined effect with PI(3,5)P2 on whole-endolysosome ITPC2 (in words) [2]: synergistic effects
EC50 ([2]; WT +PI(3,5)P2 (50 nM), whole-endolysosome, Figure 3C): 12 ± 7 µM
EC50 ([2]; WT -PI(3,5)P2, whole-endolysosome, Figure 3C): 48 ± 16 µM
Normalized I-TPC2 ([2]; 1 µM + PI(3,5)P2 50nM, individual patches): 0.3375 and 0.1568 and 0.08956
Normalized I-TPC2 ([2]; 1 µM + PI(3,5)P2 50nM, mean): 0.1946
Normalized I-TPC2 ([2]; 3 µM + PI(3,5)P2 50nM, individual patches): 0.35 and 0.3063 and 0.1
Normalized I-TPC2 ([2]; 3 µM + PI(3,5)P2 50nM, mean): 0.2521
Normalized I-TPC2 ([2]; 10 µM + PI(3,5)P2 50nM, individual patches): 0.5558 and 0.7252 and 0.2889
Normalized I-TPC2 ([2]; 10 µM + PI(3,5)P2 50nM, mean): 0.5233
Normalized I-TPC2 ([2]; 10 µM, no PI(3,5)P2, individual patches): 0.08625 and 0.1427 and 0.1845
Normalized I-TPC2 ([2]; 10 µM, no PI(3,5)P2, mean): 0.1378
Normalized I-TPC2 ([2]; 20 µM, no PI(3,5)P2, individual patches): 0.2419 and 0.1804 and 0.1168
Normalized I-TPC2 ([2]; 20 µM, no PI(3,5)P2, mean): 0.1797
Normalized I-TPC2 ([2]; 30 µM + PI(3,5)P2 50nM, individual patches): 1 (2×) and 0.3222
Normalized I-TPC2 ([2]; 30 µM + PI(3,5)P2 50nM, mean): 0.7741
Normalized I-TPC2 ([2]; 50 µM, no PI(3,5)P2, individual patches): 0.8473 and 0.4535 and 0.5893
Normalized I-TPC2 ([2]; 50 µM, no PI(3,5)P2, mean): 0.63
Normalized I-TPC2 ([2]; 100 µM + PI(3,5)P2 50nM, individual patches): 0.7417 and 0.7423 and 1
Normalized I-TPC2 ([2]; 100 µM + PI(3,5)P2 50nM, mean): 0.828
Normalized I-TPC2 ([2]; 100 µM, no PI(3,5)P2, individual patches): 1 (2×) and 0.99
Normalized I-TPC2 ([2]; 100 µM, no PI(3,5)P2, mean): 0.9967
Normalized I-TPC2 ([2]; 200 µM, no PI(3,5)P2, individual patches): 0.7106 and 0.507 and 0.6545
Normalized I-TPC2 ([2]; 200 µM, no PI(3,5)P2, mean): 0.624
EC50 ([2]; WT+pip2 (50 nM), MEAN (Fig. 3D)): 14.6 µM
EC50 ([2]; WT+pip2 (50 nM), individual patches (Fig. 3D)): 27 µM and 12.6 µM and 4.3 µM
EC50 ([2]; WT-pip2, MEAN (Fig. 3D)): 45.1 µM
EC50 ([2]; WT-pip2, individual patches (Fig. 3D)): 56 µM and 48.4 µM and 30.8 µM
ITPC2 ([2]; whole endolysosome recordings with 100 µM of LyNa-VAs at −120 mV): 945 ± 111 pA
effect on whole-endolysosome ITPC1 (in words) [3]: profound suppression of outward currents at potentials positive to Erev (~0 mV), and a substantial enhancement of inward currents negative to Erev
Dose-dependent activation of TPC1 (normalized ITPC1) ([3]; 3 µM, individual patches): 0.0359 and 0.105 and 0
Dose-dependent activation of TPC1 (normalized ITPC1) ([3]; 3 µM, mean): 0.04696
Dose-dependent activation of TPC1 (normalized ITPC1) ([3]; 10 µM, individual patches): 0.1722 and 0.1955 and 0.1208
Dose-dependent activation of TPC1 (normalized ITPC1) ([3]; 10 µM, mean): 0.1629
Dose-dependent activation of TPC1 (normalized ITPC1) ([3]; 30 µM, individual patches): 0.6041 and 0.3178 and 0.3982
Dose-dependent activation of TPC1 (normalized ITPC1) ([3]; 30 µM, mean): 0.44
Dose-dependent activation of TPC1 (normalized ITPC1) ([3]; 100 µM, individual patches): 1 and 0.7031 and 0.8638
Dose-dependent activation of TPC1 (normalized ITPC1) ([3]; 100 µM, mean): 0.8556
Dose-dependent activation of TPC1 (normalized ITPC1) ([3]; 300 µM, individual patches): 0.8072 and 1 (2×)
Dose-dependent activation of TPC1 (normalized ITPC1) ([3]; 300 µM, mean): 0.9357
τ of ITPC1 step currents ([3]; hTPC1, LyNa-VA1.1 (100 µM), Figure 4A): 155 ± 1 ms
V1/2 of ITPC1 G-V curve ([3]; hTPC1, LyNa-VA1.1 (100 µM), Figure 4F): -30 ± 5 mV
τ of ITPC1 tail currents ([3]; hTPC1, tail currents at −120 mV, LyNa-VA1.1 (100 µM), Figure 4E): 203 ± 2 ms
EC50 ([3]; whole-endolysosome, n = 3 patches, read-out: EC50, activation of TPC1): 27 ± 2 µM
